From publication PMC4860947 (Nature, 2016)

Legend:
[1] = tested on: C. glabrata adherence to CHO-Lec2 cells; assay: Yeast adherence to CHO-Lec2 epithelial cells; format: cell-based, Candida glabrata; settings: ketoconazole 40 µM alone, last 15 minutes
[2] = tested on: C. glabrata strains with wild-type or gain-of-function CgPDR1; format: cell-based, Candida glabrata; settings: azole alone
[3] = tested on: C. glabrata; format: in vivo, Candida glabrata; settings: mice; fluconazole 100 mg/kg/day, 7 days
[4] = tested on: C. glabrata; assay: Mouse disseminated fungal burden model; format: in vivo, Candida glabrata; settings: mice, CgPDR1 wild-type strain; 25 mg/kg fluconazole (low FLU) alone
[5] = tested on: C. glabrata PDR1 wild-type or PDR1^L280F strains; set-up: species or system Candida glabrata; settings: in vivo

Structure (SMILES) | relative adherence of PDR1^L280F mutant to epithelial (CHO-Lec2) cells [1] | sensitivity of CgPDR1 wild-type strain to azole on plates [2] | fungal burden in the bladder and kidney [3] | tissue fungal burden [4] | survival of G. mellonella larvae [5] | survival of G. mellonella larvae compared to vehicle [5]
CC(=O)N1CCN(c2ccc(OCC3COC(Cn4ccnc4)(c4ccc(Cl)cc4Cl)O3)cc2)CC1 (stereo not drawn) [ketoconazole] | reduced relative adherence to levels comparable to a PDR1 wild-type strain | sensitive | – | – | – | –
OC(Cn1cncn1)(Cn1cncn1)c1ccc(F)cc1F [fluconazole] | – | – | significantly reduces fungal burden | poorly reduced tissue burden | sensitive to fluconazole alone | did not significantly increase survival
